Results published in patent US20140005163A1 (NOVARTIS AG, priority 2010, published 2014).

How the values were obtained:
PI3K delta = target: T1, PI3K delta (Homo sapiens, UniProt O00329); test: PI3K delta kinase assay (Kinase-Glo luminescence); type: biochemical
T1 construct: for the full-length p110-d subunit are generated and fused by overlapping PCR; p85(iSH2) fusion partner (see partner chain) (N); His tag (C); made in house; host or cells: baculovirus; Tn5 (Trichoplusia ni) or TiniPro insect cells
In short: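 Construct BV-1060, p85 iSH2–linker–full-length p110δ, His-tagged, at 10 nM, with 1 μM ATP and 10 μg/mL phosphatidylinositol in pH 7.5 Tris, 3 mM MgCl2, 50 mM NaCl, 0.05% CHAPS. Run 60 min at room temperature; remaining ATP read by Kinase-Glo luminescence; IC50 from 4-parameter logistic fit of 8 concentrations.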

PI3K beta = target: T2, PI3K beta (Homo sapiens, UniProt P42338); test: PI3K beta kinase assay (Kinase-Glo luminescence); type: biochemical
T2 construct: for the full-length p110-b subunit are generated and fused by overlapping PCR; p85(iSH2) fusion partner (see partner chain) (N); His tag (C); made in house; host or cells: baculovirus; Tn5 (Trichoplusia ni) or TiniPro insect cells
In short: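 Residual ATP after a 60 min room-temperature reaction is quantified by Kinase-Glo luminescence. Enzyme: 25 nM BV-949 (p85 iSH2–linker–full-length p110β); substrates 1 μM ATP, 10 μg/mL PI; buffer Tris pH 7.5, MgCl2, NaCl, CHAPS, DTT. Eight concentrations per compound, four-parameter logistic IC50.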

[1] = tested on: PKB Ser473 phosphorylation in Rat1-myr-HA-p110 delta cells; test: Reverse protein array assay, PKB Ser473 phosphorylation in Rat1-myr-p110 delta cells; type: cell-based; details: read-out: p-PKB IC50
In short: (§1)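 Rat1 cells expressing myristoylated HA-tagged p110 alpha, beta or delta were plated for at least 20 h, then exposed to 8-step serial compound dilutions (0.2% DMSO final) for 30 min at 37 °C. Lysates were spotted at four dilutions on protein microarrays, and relative fluorescence intensity of phospho-Ser473 PKB was calculated.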

PI3K alpha = target: T3, PI3K alpha (Homo sapiens, UniProt P42336); test: PI3K alpha kinase assay (Kinase-Glo luminescence); type: biochemical
T3 construct: p85(iSH2) fusion partner (see partner chain) (N); His tag (C); made in house; host or cells: baculovirus; Tn5 (Trichoplusia ni) or TiniPro insect cells
In short: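 PI3K alpha at 10 nM with 1 μM ATP and 10 μg/mL phosphatidylinositol in 10 mM TRIS pH 7.5, 3 mM MgCl2, 50 mM NaCl, 0.05% CHAPS, 1 mM DTT, 60 min at room temperature. Remaining ATP read by Kinase-Glo luminescence. IC50 by 4-parameter fit over 8 concentrations.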

[2] = tested on: PKB Ser473 phosphorylation in Rat1-myr-HA-p110 beta cells; test: Reverse protein array assay, PKB Ser473 phosphorylation in Rat1-myr-p110 beta cells; type: cell-based; details: 0.5 h, pAkt Ser473, 30 minutes incubation, read-out: p-PKB IC50
In short: as §1

T2 sequence (P42338 with tags, fused parts or gaps limits assumed): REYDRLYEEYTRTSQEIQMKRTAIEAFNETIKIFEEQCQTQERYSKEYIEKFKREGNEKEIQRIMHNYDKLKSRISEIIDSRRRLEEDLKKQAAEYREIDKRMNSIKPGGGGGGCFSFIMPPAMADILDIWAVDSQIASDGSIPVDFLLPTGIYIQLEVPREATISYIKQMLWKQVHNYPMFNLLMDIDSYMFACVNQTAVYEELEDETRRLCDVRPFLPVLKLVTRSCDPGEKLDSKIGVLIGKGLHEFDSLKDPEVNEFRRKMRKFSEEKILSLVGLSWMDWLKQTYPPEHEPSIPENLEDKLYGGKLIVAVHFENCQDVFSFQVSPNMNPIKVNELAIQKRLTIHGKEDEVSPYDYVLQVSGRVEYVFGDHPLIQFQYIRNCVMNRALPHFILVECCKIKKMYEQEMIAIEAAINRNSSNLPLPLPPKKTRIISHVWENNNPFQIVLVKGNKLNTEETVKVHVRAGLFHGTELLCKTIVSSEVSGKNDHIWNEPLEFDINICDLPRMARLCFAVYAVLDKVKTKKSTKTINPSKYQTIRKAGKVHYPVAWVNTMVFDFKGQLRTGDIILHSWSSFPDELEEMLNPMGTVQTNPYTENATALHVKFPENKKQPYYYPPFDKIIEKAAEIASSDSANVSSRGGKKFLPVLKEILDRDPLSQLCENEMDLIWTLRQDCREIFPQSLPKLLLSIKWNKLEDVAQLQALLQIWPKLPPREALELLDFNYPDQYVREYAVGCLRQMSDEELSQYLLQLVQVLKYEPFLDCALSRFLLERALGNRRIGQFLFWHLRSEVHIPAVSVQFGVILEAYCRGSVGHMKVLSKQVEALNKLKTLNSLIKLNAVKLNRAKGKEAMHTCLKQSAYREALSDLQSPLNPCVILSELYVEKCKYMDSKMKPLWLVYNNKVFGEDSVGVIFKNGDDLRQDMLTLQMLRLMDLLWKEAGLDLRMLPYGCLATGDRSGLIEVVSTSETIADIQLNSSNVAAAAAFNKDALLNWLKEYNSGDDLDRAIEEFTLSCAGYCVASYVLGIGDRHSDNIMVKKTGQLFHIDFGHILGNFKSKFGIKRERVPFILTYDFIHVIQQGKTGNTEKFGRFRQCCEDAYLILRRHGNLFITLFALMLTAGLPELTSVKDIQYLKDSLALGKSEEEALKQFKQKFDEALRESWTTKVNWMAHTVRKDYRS
T3 sequence (P42336 with tags, fused parts or gaps limits assumed): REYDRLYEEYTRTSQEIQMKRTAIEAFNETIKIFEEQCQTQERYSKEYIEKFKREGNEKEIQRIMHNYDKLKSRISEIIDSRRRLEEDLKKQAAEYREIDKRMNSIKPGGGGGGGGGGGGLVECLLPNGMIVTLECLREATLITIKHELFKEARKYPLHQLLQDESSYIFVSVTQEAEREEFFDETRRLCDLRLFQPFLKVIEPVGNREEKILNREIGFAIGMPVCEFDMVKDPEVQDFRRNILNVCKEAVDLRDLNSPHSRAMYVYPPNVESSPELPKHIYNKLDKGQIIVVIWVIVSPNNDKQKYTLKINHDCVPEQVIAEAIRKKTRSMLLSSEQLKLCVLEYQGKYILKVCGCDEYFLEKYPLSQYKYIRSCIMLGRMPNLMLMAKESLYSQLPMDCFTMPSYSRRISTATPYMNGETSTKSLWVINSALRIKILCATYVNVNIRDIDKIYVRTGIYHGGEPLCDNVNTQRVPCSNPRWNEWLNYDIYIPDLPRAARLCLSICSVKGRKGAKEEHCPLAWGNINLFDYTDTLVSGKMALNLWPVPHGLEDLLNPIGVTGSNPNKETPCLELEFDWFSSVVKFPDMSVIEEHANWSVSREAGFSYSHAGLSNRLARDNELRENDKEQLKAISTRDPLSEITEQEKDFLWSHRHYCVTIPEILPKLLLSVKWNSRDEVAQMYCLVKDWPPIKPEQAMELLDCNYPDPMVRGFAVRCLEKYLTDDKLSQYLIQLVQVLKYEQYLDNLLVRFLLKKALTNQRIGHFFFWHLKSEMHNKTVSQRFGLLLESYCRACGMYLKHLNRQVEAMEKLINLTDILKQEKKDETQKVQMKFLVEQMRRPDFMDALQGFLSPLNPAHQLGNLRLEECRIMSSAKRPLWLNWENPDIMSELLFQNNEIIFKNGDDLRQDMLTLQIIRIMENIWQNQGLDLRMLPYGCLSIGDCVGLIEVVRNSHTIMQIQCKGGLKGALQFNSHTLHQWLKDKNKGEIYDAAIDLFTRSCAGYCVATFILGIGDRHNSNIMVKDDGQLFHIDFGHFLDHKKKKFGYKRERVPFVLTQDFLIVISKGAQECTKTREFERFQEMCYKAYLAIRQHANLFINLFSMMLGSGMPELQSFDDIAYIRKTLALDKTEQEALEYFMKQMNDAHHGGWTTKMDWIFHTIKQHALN
T1 sequence (O00329 with tags, fused parts or gaps limits assumed): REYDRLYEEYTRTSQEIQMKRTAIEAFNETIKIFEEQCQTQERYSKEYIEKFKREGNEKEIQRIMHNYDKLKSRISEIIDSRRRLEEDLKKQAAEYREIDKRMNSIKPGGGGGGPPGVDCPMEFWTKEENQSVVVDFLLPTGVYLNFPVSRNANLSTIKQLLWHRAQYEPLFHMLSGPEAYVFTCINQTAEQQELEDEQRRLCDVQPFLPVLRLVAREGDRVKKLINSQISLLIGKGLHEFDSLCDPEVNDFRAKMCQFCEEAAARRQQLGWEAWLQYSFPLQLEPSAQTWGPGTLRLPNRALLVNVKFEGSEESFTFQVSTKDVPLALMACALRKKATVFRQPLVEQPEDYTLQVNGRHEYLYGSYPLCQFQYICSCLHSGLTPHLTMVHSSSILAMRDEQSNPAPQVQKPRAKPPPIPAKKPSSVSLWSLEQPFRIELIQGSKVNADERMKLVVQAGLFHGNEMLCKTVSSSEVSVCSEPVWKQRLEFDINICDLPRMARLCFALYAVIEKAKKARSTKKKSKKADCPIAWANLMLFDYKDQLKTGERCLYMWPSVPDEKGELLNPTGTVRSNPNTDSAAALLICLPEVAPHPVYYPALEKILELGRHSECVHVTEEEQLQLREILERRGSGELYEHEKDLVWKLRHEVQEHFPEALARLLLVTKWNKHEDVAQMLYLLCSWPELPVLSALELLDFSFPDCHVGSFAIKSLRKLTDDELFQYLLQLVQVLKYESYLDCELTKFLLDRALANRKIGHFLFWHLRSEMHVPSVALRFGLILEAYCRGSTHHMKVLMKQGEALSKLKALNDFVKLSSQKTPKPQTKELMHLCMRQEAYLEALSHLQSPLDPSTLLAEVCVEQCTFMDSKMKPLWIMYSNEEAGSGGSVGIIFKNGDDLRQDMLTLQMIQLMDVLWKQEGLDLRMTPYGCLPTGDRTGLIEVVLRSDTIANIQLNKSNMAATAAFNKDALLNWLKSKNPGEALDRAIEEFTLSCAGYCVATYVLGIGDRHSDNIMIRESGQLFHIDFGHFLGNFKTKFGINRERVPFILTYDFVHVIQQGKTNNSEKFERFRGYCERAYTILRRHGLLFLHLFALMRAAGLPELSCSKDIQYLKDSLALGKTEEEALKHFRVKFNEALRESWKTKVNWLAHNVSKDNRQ

| Compound | IC50 (PI3K delta) [µM] | IC50 (PI3K beta) [µM] | IC50 [1] [µM] | IC50 (PI3K alpha) [µM] | IC50 [2] [µM] |
| --- | --- | --- | --- | --- | --- |
| Cc1nn(C)cc1-n1c(=O)n(C)c2cnc3ccc(-c4cncc(C(C)O)c4)cc3c21 (racemic) [Example 217, (rac)-1-(1,3-Dimethyl-1H-pyrazol-4-yl)-8-[5-(1-hydroxy-ethyl)-pyridin-3-yl]-3-methyl-1,3-dihydro-imidazo[4,5-c]quinolin-2-one] | 0.019 | 0.013 | 0.249 | 0.008 | 0.161 |
| COc1ccc(-c2ccc3ncc4c(c3c2)n(-c2c(C)nn(C)c2C)c(=O)n4C)cc1OC [Example 1.9, 8-(3,4-Dimethoxy-phenyl)-3-methyl-1-(1,3,5-trimethyl-1H-pyrazol-4-yl)-1,3-dihydro-imidazo[4,5-c]quinolin-2-one] | 0.018 | 0.039 | 0.14 | 0.028 | 0.113 |
| COc1ccc(-c2ccc3ncc4c(c3c2)n(-c2ccnn2C)c(=O)n4C)cn1 [Example 2.2, 8-(6-Methoxy-pyridin-3-yl)-3-methyl-1-(2-methyl-2H-pyrazol-3-yl)-1,3-dihydro-imidazo[4,5-c]quinolin-2-one] | 0.056 | 0.278 | 0.541 | 0.062 | 0.553 |
| COc1ccc(-c2ccc3ncc4c(c3c2)n(-c2cnn(C)c2C)c(=O)n4C)cn1 [Example 2.9, 1-(1,5-Dimethyl-1H-pyrazol-4-yl)-8-(6-methoxy-pyridin-3-yl)-3-methyl-1,3-dihydro-imidazo[4,5-c]quinolin-2-one] | 0.054 | 0.166 | 0.165 | 0.043 | 0.141 |
| CCOc1ccc(-c2ccc3ncc4c(c3c2)n(-c2cn(C)nc2Cl)c(=O)n4C)cn1 [Example 3.8, 1-(3-Chloro-1-methyl-1H-pyrazol-4-yl)-8-(6-ethoxy-pyridin-3-yl)-3-methyl-1,3-dihydro-imidazo[4,5-c]quinolin-2-one] | 0.034 | 0.123 | 0.037 | 0.016 | 0.023 |
| Cc1c(-n2c(=O)n(C)c3cnc4ccc(-c5ccc(N(C)C)nc5)cc4c32)cnn1C [Example 4.4, 8-(6-Dimethylamino-pyridin-3-yl)-1-(1,5-dimethyl-1H-pyrazol-4-yl)-3-methyl-1,3-dihydro-imidazo[4,5-c]quinolin-2-one] | 0.089 | 0.733 | 0.155 | 0.045 | 0.11 |
| Cc1nn(C(C)C)cc1-n1c(=O)n(C)c2cnc3ccc(-c4cnc(N(C)C)nc4)cc3c21 [Example 6.1, 8-(2-Dimethylamino-pyrimidin-5-yl)-1-(1-isopropyl-3-methyl-1H-pyrazol-4-yl)-3-methyl-1,3-dihydro-imidazo[4,5-c]quinolin-2-one] | 0.028 | 0.227 | 0.09 | 0.029 | 0.043 |
| Cc1nn(C)cc1-n1c(=O)n(C)c2cnc3ccc(-c4cccnc4)cc3c21 [Example 10.2, 1-(1,3-Dimethyl-1H-pyrazol-4-yl)-3-methyl-8-pyridin-3-yl-1,3-dihydro-imidazo[4,5-c]quinolin-2-one] | 0.112 | 0.086 | 0.197 | 0.016 | 0.058 |
| CCn1cc(-n2c(=O)n(C)c3cnc4ccc(-c5ccc(CO)nc5)cc4c32)c(C)n1 [Example 16.1, 1-(1-ethyl-3-methyl-1H-pyrazol-4-yl)-8-(6-hydroxymethyl-pyridin-3-yl)-3-methyl-1,3-dihydro-imidazo[4,5-c]quinolin-2-one] | 0.025 | 0.228 | 0.13 | 0.033 | 0.034 |
| Cc1nn(C)cc1-n1c(=O)n(C)c2cnc3ccc(-c4cncc(S(C)(=O)=O)c4)cc3c21 [Example 22, 1-(1,3-Dimethyl-1H-pyrazol-4-yl)-8-(5-methanesulfonyl-pyridin-3-yl)-3-methyl-1,3-dihydro-imidazo[4,5-c]quinolin-2-one] | 0.009 | 0.011 | 0.297 | 0.006 | 0.148 |
| Cc1nn(CC(=O)N(C)C)c(C)c1-n1c(=O)n(C)c2cnc3ccc(-c4cnc(N)c(C(F)(F)F)c4)cc3c21 [Example 25.2, 2-{4-[8-(6-Amino-5-trifluoromethyl-pyridin-3-yl)-3-methyl-2-oxo-2,3-dihydro-imidazo[4,5-c]quinolin-1-yl]-3,5-dimethyl-pyrazol-1-yl}-N,N-dimethyl-acetamide] | 0.032 | 0.578 | 0.247 | 0.013 |  |
| Cc1nn(C)c(C)c1-n1c(=O)n(C)c2cnc3ccc(-c4cnc(N)c(C(F)(F)F)c4)cc3c21 [Example 25.3, 8-(6-Amino-5-trifluoromethyl-pyridin-3-yl)-3-methyl-1-(1,3,5-trimethyl-1H-pyrazol-4-yl)-1,3-dihydro-imidazo[4,5-c]quinolin-2-one] | 0.046 | 0.048 | 0.059 | 0.059 | 0.073 |
| Cc1nn(C)cc1-n1c(=O)n(C)c2cnc3ccc(-c4ccc(OCC5CC5)nc4)cc3c21 [Example 42, 8-(6-Cyclopropylmethoxy-pyridin-3-yl)-1-(1,3-dimethyl-1H-pyrazol-4-yl)-3-methyl-1,3-dihydro-imidazo[4,5-c]quinolin-2-one] | 0.441 |  | 0.158 | 0.07 | 0.066 |
| Cc1nn(C)cc1-n1c(=O)n(C)c2cnc3ccc(-c4ccc5c(c4)CCN5C)cc3c21 [Example 50, 1-(1,3-Dimethyl-1H-pyrazol-4-yl)-3-methyl-8-(1-methyl-2,3-dihydro-1H-indol-5-yl)-1,3-dihydro-imidazo[4,5-c]quinolin-2-one] | 0.371 |  | 0.57 | 0.188 | 0.119 |
| Cc1nn(CC(=O)N(C)C)c(C)c1-n1c(=O)n(C)c2cnc3ccc(-c4ccc(-n5cccn5)cc4)cc3c21 [Example 51.4, 2-{3,5-Dimethyl-4-[3-methyl-2-oxo-8-(4-pyrazol-1-yl-phenyl)-2,3-dihydro-imidazo[4,5-c]quinolin-1-yl]pyrazol-1-yl}-N,N-dimethyl-acetamide] | 0.598 |  | 0.223 | 0.022 |  |
| Cc1nn(C)cc1-n1c(=O)n(C)c2cnc3ccc(-c4cccc(OC(C)C)c4F)cc3c21 [Example 83, 1-(1,3-Dimethyl-1H-pyrazol-4-yl)-8-(2-fluoro-3-isopropoxy-phenyl)-3-methyl-1,3-dihydro-imidazo[4,5-c]quinolin-2-one] | 0.234 |  | 0.508 | 0.074 | 0.353 |
| CCn1cc(-n2c(=O)n(C)c3cnc4ccc(-c5ccc(COC)nc5)cc4c32)c(C)n1 [Example 104, 1-(1-Ethyl-3-methyl-1H-pyrazol-4-yl)-8-(6-methoxymethyl-pyridin-3-yl)-3-methyl-1,3-dihydro-imidazo[4,5-c]quinolin-2-one] | 0.141 |  | 0.11 | 0.079 | 0.037 |
| CCOc1ccc(-c2ccc3ncc4c(c3c2)n(-c2cn(CCOC)nc2C)c(=O)n4C)cn1 [Example 131, 8-(6-Ethoxy-pyridin-3-yl)-1-[1-(2-methoxy-ethyl)-3-methyl-1H-pyrazol-4-yl]-3-methyl-1,3-dihydro-imidazo[4,5-c]quinolin-2-one] | 0.271 |  | 0.127 | 0.161 | 0.029 |
| Cc1cc(-n2c(=O)n(C)c3cnc4ccc(-c5cncc(N6CCOCC6)c5)cc4c32)n(C)n1 [Example 175.2, 1-(2,5-Dimethyl-2H-pyrazol-3-yl)-3-methyl-8-(5-morpholin-4-yl-pyridin-3-yl)-1,3-dihydro-imidazo[4,5-c]quinolin-2-one] | 0.235 |  | 0.36 | 0.199 | 0.161 |
| CCN(CC)C(=O)Cn1cc(-n2c(=O)n(C)c3cnc4ccc(-c5cnc(N6CCCC6)nc5)cc4c32)c(C)n1 [Example 247.1, N,N-Diethyl-2-{3-methyl-4-[3-methyl-2-oxo-8-(2-pyrrolidin-1-yl-pyrimidin-5-yl)-2,3-dihydro-imidazo[4,5-c]quinolin-1-yl]-pyrazol-1-yl}-acetamide] | 0.777 |  | 0.157 | 0.093 | 0.052 |
